The numbers were not newly measured in patent publication US12594236B2, “Method of treating acute exacerbation of schizophrenia with long-acting injectable depot composition” (LABORATORIOS FARMACEUTICOS ROVI, S.A., priority 2021, dated 2026), which cites them from elsewhere.

Read-outs that look alike come from different tables or passages of the source.

The data set relates to acute schizophrenia.

As to `CCCCCCCCCCCCCCCC(=O)OC1CCCn2c1nc(C)c(CCN1CCC(c3noc4cc(F)ccc34)CC1)c2=O` (centres unmarked) [Paliperidone Palmitate], the “placebo-adjusted reduction of the PANSS total score” value (“placebo-adjusted reduction” for short) is on record as −5.1 (25 mg eq, 13 weeks); −8.7 (100 mg eq, 13 weeks); −9.8 (150 mg eq, 13 weeks).
As to `CCCCCCCCCCCC(=O)OCN1C(=O)CCc2ccc(OCCCCN3CCN(c4cccc(Cl)c4Cl)CC3)cc21` [Aripiprazole Lauroxil], the “placebo-adjusted reduction” value (441 mg, 12 weeks, oral aripiprazole 3 weeks after randomization) is −10.9 and the “placebo-adjusted reduction” value (882 mg, 12 weeks, oral aripiprazole 3 weeks after randomization) was −11.9.
